What was measured:
[1] = Hemolytic activity, spectrophotometric; type: cell-based, human; conditions: human, human red blood cells (huRBC), 5% hematocrit, 200 μg/mL, 37 °C
CCRF-CEM = assay: cells; conditions: Homo sapiens, 48 h; for CC50: read-out: LC50
K-562 = assay: cells; conditions: Homo sapiens, K562, 48 h; for GI50: K-562, 48 h; for CC50: read-out: LC50
MOLT-4 = assay: cells; conditions: Homo sapiens, MOLT-4, 48 h; for CC50: read-out: LC50
A549/ATCC = assay: cells; conditions: Homo sapiens, A549, 48 h; for CC50: read-out: LC50
EKVX = assay: cells; conditions: Homo sapiens, 48 h; for CC50: read-out: LC50
HOP-62 = assay: cells; conditions: Homo sapiens, HOP-62, 48 h; for CC50: read-out: LC50
HOP-92 = assay: cells; conditions: Homo sapiens, HOP-92, 48 h; for CC50: read-out: LC50
NCI-H460 = assay: cells; conditions: Homo sapiens, NCI-H460, 48 h; for CC50: read-out: LC50
COLO 205 = assay: cells; conditions: Homo sapiens, COLO 205, 48 h; for CC50: read-out: LC50
HCC-2998 = assay: cells; conditions: Homo sapiens, HCC 2998, 48 h; for CC50: read-out: LC50
HCT-116 = assay: cells; conditions: Homo sapiens, HCT-116, 48 h; for CC50: read-out: LC50
HCT-15 = assay: cells; conditions: Homo sapiens, HCT-15, 48 h; for CC50: read-out: LC50
HT29 = assay: cells; conditions: Homo sapiens, HT-29, 48 h; for CC50: read-out: LC50
KM12 = assay: cells; conditions: Homo sapiens, KM12, 48 h; for CC50: read-out: LC50
SW-620 = assay: cells; conditions: Homo sapiens, SW-620, 48 h; for CC50: read-out: LC50
SF-268 = assay: cells; conditions: Homo sapiens, SF-268, 48 h; for CC50: read-out: LC50
SF-295 = assay: cells; conditions: Homo sapiens, SF-295, 48 h; for CC50: read-out: LC50
U251 = assay: cells; conditions: Homo sapiens, U-251, 48 h; for GI50: U251, 48 h; for CC50: read-out: LC50
LOX IMVI = assay: cells; conditions: Homo sapiens, 48 h
MALME-3M = assay: cells; conditions: Homo sapiens, 48 h
SK-MEL-2 = assay: cells; conditions: Homo sapiens, SK-MEL-2, 48 h; for CC50: read-out: LC50
SK-MEL-28 = assay: cells; conditions: Homo sapiens, SK-MEL-28, 48 h; for CC50: read-out: LC50
SK-MEL-5 = assay: cells; conditions: Homo sapiens, SK-MEL-5, 48 h; for CC50: read-out: LC50
IGROV1 = assay: cells; conditions: Homo sapiens, IGROV-1, 48 h
OVCAR-3 = assay: cells; conditions: Homo sapiens, OVCAR-3, 48 h; for CC50: read-out: LC50
OVCAR-5 = assay: cells; conditions: Homo sapiens, OVCAR-5, 48 h; for CC50: read-out: LC50
SK-OV-3 = assay: cells; conditions: Homo sapiens, SK-OV-3, 48 h; for CC50: read-out: LC50
786-0 = assay: cells; conditions: Homo sapiens, 786-0, 48 h; for CC50: read-out: LC50
A498 = assay: cells; conditions: Homo sapiens, A498, 48 h; for CC50: read-out: LC50
ACHN = assay: cells; conditions: Homo sapiens, 48 h; for CC50: read-out: LC50
CAKI-1 = assay: cells; conditions: Homo sapiens, CAKI-1, 48 h; for CC50: read-out: LC50
RXF 393 = assay: cells; conditions: Homo sapiens, RXF 393, 48 h; for CC50: read-out: LC50
UO-31 = assay: cells; conditions: Homo sapiens, UO-31, 48 h; for CC50: read-out: LC50
PC-3 = assay: cells; conditions: Homo sapiens, PC-3, 48 h; for CC50: read-out: LC50
MDA-MB-231/ATCC = assay: cells; conditions: Homo sapiens, MDA-MB-231, 48 h
T-47D = assay: cells; conditions: Homo sapiens, T47D, 48 h; for CC50: read-out: LC50

## COc1cc(/C=C/C(=O)c2ccc(C)cc2)ccc1Oc1nc(NCCO)nc(N2CCOCC2)n1 [20b]
[1]
  hemolysis at 24 h, 200 µg/mL: 3.3%
CCRF-CEM
  GI50: 2710 nM
  CC50: > 100000 nM
K-562
  GI50: 1530 nM
  CC50: > 100000 nM
MOLT-4
  GI50: 2090 nM
  CC50: > 100000 nM
A549/ATCC
  GI50: 9470 nM
  CC50: > 100000 nM
EKVX
  GI50: 3900 nM
  CC50: > 100000 nM
HOP-62
  GI50: 16600 nM
  CC50: > 100000 nM
HOP-92
  GI50: 8400 nM
  CC50: > 100000 nM
NCI-H460
  GI50: 2200 nM
  CC50: > 100000 nM
COLO 205
  GI50: 2640 nM
  CC50: > 100000 nM
HCC-2998
  GI50: 2080 nM
HCT-116
  GI50: 1730 nM
HCT-15
  GI50: 1780 nM
  CC50: > 100000 nM
HT29
  GI50: 1850 nM
KM12
  GI50: 1850 nM
SW-620
  GI50: 1640 nM
  CC50: > 100000 nM
SF-268
  GI50: 2900 nM
  CC50: > 100000 nM
SF-295
  CC50: > 100000 nM
U251
  GI50: 1620 nM
LOX IMVI
  GI50: 430 nM
LOX IMVI; read-out: LC50, LOX IMVI, 48 h
  CC50: 4090 nM
MALME-3M
  GI50: 2290 nM
MALME-3M; read-out: LC50
  CC50: > 100000 nM
SK-MEL-2
  GI50: 8170 nM
  CC50: > 100000 nM
SK-MEL-28
  GI50: 2500 nM
  CC50: > 100000 nM
SK-MEL-5
  GI50: 2000 nM
IGROV1
  GI50: 3100 nM
IGROV1; read-out: LC50
  CC50: > 100000 nM
OVCAR-3
  GI50: 2490 nM
  CC50: > 100000 nM
OVCAR-5
  GI50: 3220 nM
  CC50: > 100000 nM
SK-OV-3
  GI50: 23000 nM
  CC50: > 100000 nM
786-0
  GI50: 2180 nM
  CC50: > 100000 nM
A498
  GI50: > 100000 nM
  CC50: > 100000 nM
ACHN
  GI50: 1940 nM
CAKI-1
  GI50: 5020 nM
  CC50: > 100000 nM
RXF 393
  GI50: 2070 nM
UO-31
  GI50: 1490 nM
PC-3
  GI50: 2530 nM
  CC50: > 100000 nM
MDA-MB-231/ATCC
  GI50: 2980 nM
MDA-MB-231/ATCC; read-out: LC50
  CC50: > 100000 nM
T-47D
  GI50: 2980 nM
  CC50: > 100000 nM

## Nc1nc(N)c2c(n1)NC(c1ccc(F)cc1)CC(c1ccc(Nc3nc(NCCO)nc(Nc4ccc(Cl)cc4)n3)cc1)=N2 (centres unmarked) [33f]
[1]
  hemolysis at 24 h, 200 µg/mL: 5%
CCRF-CEM
  GI50: 754 nM
  CC50: > 100000 nM
K-562
  GI50: 489 nM
  CC50: > 100000 nM
MOLT-4
  GI50: 532 nM
  CC50: > 100000 nM
A549/ATCC
  GI50: 3120 nM
  CC50: > 100000 nM
EKVX
  GI50: 1660 nM
  CC50: 24000 nM
HOP-62
  GI50: 1770 nM
  CC50: 11700 nM
HOP-92
  GI50: 1250 nM
  CC50: 10200 nM
NCI-H460
  GI50: 1710 nM
  CC50: 7730 nM
COLO 205
  GI50: 1490 nM
  CC50: 5800 nM
HCC-2998
  GI50: 1610 nM
  CC50: 5780 nM
HCT-116
  GI50: 1200 nM
  CC50: 5230 nM
HCT-15
  GI50: 1030 nM
  CC50: 7870 nM
HT29
  GI50: 1420 nM
  CC50: 7010 nM
KM12
  GI50: 1680 nM
  CC50: 8220 nM
SW-620
  GI50: 1600 nM
  CC50: 6680 nM
SF-268
  GI50: 2850 nM
  CC50: 76000 nM
SF-295
  GI50: 1960 nM
  CC50: 7150 nM
U251
  GI50: 1370 nM
  CC50: 5430 nM
LOX IMVI
  GI50: 1520 nM
MALME-3M
  GI50: 1660 nM
SK-MEL-2
  GI50: 1670 nM
  CC50: 5750 nM
SK-MEL-28
  GI50: 1700 nM
  CC50: 5930 nM
SK-MEL-5
  GI50: 1460 nM
  CC50: 5300 nM
IGROV1
  GI50: 1700 nM
OVCAR-3
  GI50: 1580 nM
  CC50: 6820 nM
OVCAR-5
  GI50: 5100 nM
  CC50: > 100000 nM
SK-OV-3
  GI50: 12900 nM
  CC50: 50500 nM
786-0
  GI50: 1360 nM
  CC50: 7120 nM
A498
  GI50: 3720 nM
  CC50: 39100 nM
ACHN
  GI50: 3220 nM
  CC50: > 100000 nM
CAKI-1
  GI50: 6140 nM
  CC50: > 100000 nM
RXF 393
  GI50: 1170 nM
  CC50: 5900 nM
UO-31
  GI50: 3070 nM
  CC50: > 100000 nM
PC-3
  GI50: 1720 nM
  CC50: > 100000 nM
MDA-MB-231/ATCC
  GI50: 1780 nM
T-47D
  GI50: 1270 nM
  CC50: 8090 nM

## Nc1nc(N)c2c(n1)NC(c1ccc(C(F)(F)F)cc1)CC(c1ccc(Nc3nc(NCCO)nc(Nc4ccc(Cl)cc4)n3)cc1)=N2 (centres unmarked) [33g]
[1]
  hemolysis at 24 h, 200 µg/mL: 22%
CCRF-CEM
  GI50: 1230 nM
  CC50: > 100000 nM
K-562
  GI50: 642 nM
  CC50: > 100000 nM
MOLT-4
  GI50: 888 nM
  CC50: > 100000 nM
A549/ATCC
  GI50: 1730 nM
  CC50: 7080 nM
EKVX
  GI50: 1520 nM
  CC50: 5750 nM
HOP-62
  GI50: 1630 nM
  CC50: 6140 nM
HOP-92
  GI50: 1480 nM
  CC50: 7940 nM
NCI-H460
  GI50: 1960 nM
  CC50: 8230 nM
COLO 205
  GI50: 1330 nM
  CC50: 5250 nM
HCC-2998
  GI50: 1310 nM
  CC50: 5250 nM
HCT-116
  GI50: 1050 nM
  CC50: 5540 nM
HCT-15
  GI50: 1150 nM
  CC50: 5830 nM
HT29
  GI50: 1360 nM
  CC50: 6540 nM
KM12
  GI50: 1370 nM
  CC50: 6050 nM
SW-620
  GI50: 1600 nM
  CC50: 7040 nM
SF-268
  GI50: 1660 nM
  CC50: 7270 nM
SF-295
  GI50: 1790 nM
  CC50: 6140 nM
U251
  GI50: 1240 nM
  CC50: 5160 nM
LOX IMVI
  GI50: 1770 nM
MALME-3M
  GI50: 1740 nM
SK-MEL-2
  GI50: 1670 nM
  CC50: 5640 nM
SK-MEL-28
  GI50: 1530 nM
  CC50: 5370 nM
SK-MEL-5
  GI50: 1550 nM
  CC50: 5370 nM
IGROV1
  GI50: 1370 nM
OVCAR-3
  GI50: 1320 nM
  CC50: 6570 nM
OVCAR-5
  GI50: 1600 nM
  CC50: 5640 nM
SK-OV-3
  GI50: 1830 nM
  CC50: 6520 nM
786-0
  GI50: 1390 nM
  CC50: 6090 nM
A498
  GI50: 1560 nM
  CC50: 5400 nM
ACHN
  GI50: 1500 nM
  CC50: 5310 nM
CAKI-1
  GI50: 1450 nM
  CC50: 5610 nM
RXF 393
  GI50: 1140 nM
  CC50: 5480 nM
UO-31
  GI50: 1430 nM
  CC50: 5300 nM
PC-3
  GI50: 1540 nM
MDA-MB-231/ATCC
  GI50: 1880 nM
T-47D
  GI50: 1550 nM
  CC50: 8750 nM

Source: publication PMC11012124, “Synthesis of Novel Triazine-Based Chalcones and 8,9-dihydro-7H-pyrimido[4,5-b][1,4]diazepines as Potential Leads in the Search of Anticancer, Antibacterial and Antifungal Agents” (International Journal of Molecular Sciences, 2024)
